Legend:
Test in all cases: Test E pre-/postemergence herbicide test
dallisgrass = type: in vivo, Paspalum dilatatum
Outline: (§1)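 Greenhouse response scored visually 12 to 14 days after treatment versus controls, 0 meaning no effect and 100 complete control. Compounds, formulated with surfactant in a non-phytotoxic solvent blend, were sprayed either preemergence after sowing or postemergence at the 1- to 4-leaf stage (2 to 18 cm).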

bermudagrass = type: in vivo, Cynodon dactylon
Outline: as §1

common groundsel = type: in vivo, Senecio vulgaris
Outline: as §1

common ragweed = type: in vivo, Ambrosia elatior
Outline: as §1

pitted morningglory = type: in vivo, Ipomoea lacunosa
Outline: as §1

Surinam grass = type: in vivo, Urochloa decumbens
Outline: as §1

common mallow = type: in vivo, Malva sylvestris
Outline: as §1

common sowthistle = type: in vivo, Sonchus oleraceous
Outline: as §1

[1] = Postemergence, 500 g ai/ha, scale 0 to 100
[2] = Postemergence, 250 g ai/ha, scale 0 to 100
[3] = Preemergence, 62 g ai/ha, scale 0 to 100
[4] = Preemergence, 125 g ai/ha, scale 0 to 100
[5] = Preemergence, 250 g ai/ha, scale 0 (no effect) to 100 (complete control)
[6] = Preemergence, 500 g ai/ha, scale 0 (no effect) to 100 (complete control)
[7] = postemergence, 125 g ai/ha, scale 0 to 100
[8] = postemergence, 62 g ai/ha, scale 0 to 100

CCNC(=O)c1ccc(F)c(NC(=O)c2cn(C(C)(C)C)nc2CC)c1 [Compound 193]
70: Plant response rating, Groundsel (common groundsel; [2]) | Plant response rating, Ragweed (common ragweed; [2]) | Plant response rating, Morningglory (pitted morningglory; [6]) | Plant response rating, Surinam Grass (Surinam grass; [7])
30: Plant response rating, Ragweed (common ragweed; [7]) | Plant response rating, Morningglory (pitted morningglory; [8])
85: Plant response rating, Bermudagrass (bermudagrass; [3]) | Plant response rating, Surinam Grass (Surinam grass; [2])
20: Plant response rating, Groundsel (common groundsel; [3]) | Plant response rating, Groundsel (common groundsel; [8]) | Plant response rating, Morningglory (pitted morningglory; [4]) | Plant response rating, Mallow (common mallow; [8])
100: Plant response rating, Dallisgrass (dallisgrass; [6]) | Plant response rating, Bermudagrass (bermudagrass; [4]) | Plant response rating, Bermudagrass (bermudagrass; [5]) | Plant response rating, Bermudagrass (bermudagrass; [6]) | Plant response rating, Groundsel (common groundsel; [1]) | Plant response rating, Groundsel (common groundsel; [4]) | Plant response rating, Groundsel (common groundsel; [5]) | Plant response rating, Groundsel (common groundsel; [6]) | Plant response rating, Surinam Grass (Surinam grass; [6])
80: Plant response rating, Ragweed (common ragweed; [5]) | Plant response rating, Surinam Grass (Surinam grass; [4]) | Plant response rating, Sowthistle (common sowthistle; [3])
50: Plant response rating, Ragweed (common ragweed; [3]) | Plant response rating, Ragweed (common ragweed; [4]) | Plant response rating, Morningglory (pitted morningglory; [5])
95: Plant response rating, Dallisgrass (dallisgrass; [4]) | Plant response rating, Dallisgrass (dallisgrass; [5]) | Plant response rating, Bermudagrass (bermudagrass; [1]) | Plant response rating, Ragweed (common ragweed; [6]) | Plant response rating, Mallow (common mallow; [4]) | Plant response rating, Mallow (common mallow; [5]) | Plant response rating, Mallow (common mallow; [6]) | Plant response rating, Sowthistle (common sowthistle; [1]) | Plant response rating, Sowthistle (common sowthistle; [2]) | Plant response rating, Sowthistle (common sowthistle; [4]) | Plant response rating, Sowthistle (common sowthistle; [5]) | Plant response rating, Sowthistle (common sowthistle; [6])
60: Plant response rating, Bermudagrass (bermudagrass; [8]) | Plant response rating, Morningglory (pitted morningglory; [2]) | Plant response rating, Morningglory (pitted morningglory; [7]) | Plant response rating, Mallow (common mallow; [3]) | Plant response rating, Mallow (common mallow; [7]) | Plant response rating, Sowthistle (common sowthistle; [7])
90: Plant response rating, Dallisgrass (dallisgrass; [1]) | Plant response rating, Dallisgrass (dallisgrass; [2]) | Plant response rating, Bermudagrass (bermudagrass; [2]) | Plant response rating, Bermudagrass (bermudagrass; [7]) | Plant response rating, Surinam Grass (Surinam grass; [1]) | Plant response rating, Mallow (common mallow; [1]) | Plant response rating, Mallow (common mallow; [2])
10: Plant response rating, Dallisgrass (dallisgrass; [8]) | Plant response rating, Ragweed (common ragweed; [8]) | Plant response rating, Surinam Grass (Surinam grass; [8]) | Plant response rating, Sowthistle (common sowthistle; [8])
75: Plant response rating, Ragweed (common ragweed; [1]) | Plant response rating, Morningglory (pitted morningglory; [1])
0: Plant response rating, Morningglory (pitted morningglory; [3])
40: Plant response rating, Dallisgrass (dallisgrass; [3]) | Plant response rating, Dallisgrass (dallisgrass; [7]) | Plant response rating, Groundsel (common groundsel; [7])

CCc1nn(C(C)(C)C)cc1C(=O)Nc1cc(C(=O)N(C)C)ccc1F [Compound 222, N-[5-[(dimethylamino)carbonyl]-2-fluorophenyl]-1-(1,1-dimethylethyl)-3-ethyl-1H-pyrazole-4-carboxamide]
85: Plant response rating, Dallisgrass (dallisgrass; [1]) | Plant response rating, Dallisgrass (dallisgrass; [2]) | Plant response rating, Ragweed (common ragweed; [4])
95: Plant response rating, Groundsel (common groundsel; [2]) | Plant response rating, Ragweed (common ragweed; [5]) | Plant response rating, Ragweed (common ragweed; [6]) | Plant response rating, Morningglory (pitted morningglory; [6]) | Plant response rating, Mallow (common mallow; [5]) | Plant response rating, Mallow (common mallow; [6]) | Plant response rating, Sowthistle (common sowthistle; [6])
100: Plant response rating, Dallisgrass (dallisgrass; [5]) | Plant response rating, Dallisgrass (dallisgrass; [6]) | Plant response rating, Bermudagrass (bermudagrass; [4]) | Plant response rating, Bermudagrass (bermudagrass; [5]) | Plant response rating, Bermudagrass (bermudagrass; [6]) | Plant response rating, Groundsel (common groundsel; [1]) | Plant response rating, Groundsel (common groundsel; [4]) | Plant response rating, Groundsel (common groundsel; [5]) | Plant response rating, Groundsel (common groundsel; [6]) | Plant response rating, Surinam Grass (Surinam grass; [6]) | Plant response rating, Sowthistle (common sowthistle; [1]) | Plant response rating, Sowthistle (common sowthistle; [2])
70: Plant response rating, Groundsel (common groundsel; [7]) | Plant response rating, Ragweed (common ragweed; [2]) | Plant response rating, Mallow (common mallow; [3])
50: Plant response rating, Dallisgrass (dallisgrass; [3]) | Plant response rating, Surinam Grass (Surinam grass; [8]) | Plant response rating, Mallow (common mallow; [8])
20: Plant response rating, Ragweed (common ragweed; [8]) | Plant response rating, Morningglory (pitted morningglory; [8]) | Plant response rating, Sowthistle (common sowthistle; [8])
40: Plant response rating, Groundsel (common groundsel; [8]) | Plant response rating, Morningglory (pitted morningglory; [5]) | Plant response rating, Morningglory (pitted morningglory; [7])
75: Plant response rating, Sowthistle (common sowthistle; [3])
80: Plant response rating, Dallisgrass (dallisgrass; [4]) | Plant response rating, Bermudagrass (bermudagrass; [1]) | Plant response rating, Bermudagrass (bermudagrass; [2]) | Plant response rating, Bermudagrass (bermudagrass; [3]) | Plant response rating, Bermudagrass (bermudagrass; [7]) | Plant response rating, Surinam Grass (Surinam grass; [2]) | Plant response rating, Surinam Grass (Surinam grass; [7]) | Plant response rating, Mallow (common mallow; [4])
30: Plant response rating, Dallisgrass (dallisgrass; [8]) | Plant response rating, Groundsel (common groundsel; [3]) | Plant response rating, Ragweed (common ragweed; [3]) | Plant response rating, Morningglory (pitted morningglory; [4])
90: Plant response rating, Morningglory (pitted morningglory; [1]) | Plant response rating, Surinam Grass (Surinam grass; [4]) | Plant response rating, Sowthistle (common sowthistle; [4]) | Plant response rating, Sowthistle (common sowthistle; [5])
60: Plant response rating, Dallisgrass (dallisgrass; [7]) | Plant response rating, Bermudagrass (bermudagrass; [8]) | Plant response rating, Ragweed (common ragweed; [7]) | Plant response rating, Morningglory (pitted morningglory; [2]) | Plant response rating, Mallow (common mallow; [2]) | Plant response rating, Mallow (common mallow; [7]) | Plant response rating, Sowthistle (common sowthistle; [7])

CCc1nn(C(C)C)nc1C(=O)Nc1cccc(C(=O)N2CCCCC2)c1 [Compound 385]
20: Plant response rating, Bermudagrass (bermudagrass; [3]) | Plant response rating, Surinam Grass (Surinam grass; [4]) | Plant response rating, Mallow (common mallow; [5])
60: Plant response rating, Bermudagrass (bermudagrass; [4]) | Plant response rating, Bermudagrass (bermudagrass; [5]) | Plant response rating, Groundsel (common groundsel; [5]) | Plant response rating, Sowthistle (common sowthistle; [5])
30: Plant response rating, Dallisgrass (dallisgrass; [4])
0: Plant response rating, Groundsel (common groundsel; [3]) | Plant response rating, Groundsel (common groundsel; [4]) | Plant response rating, Ragweed (common ragweed; [3]) | Plant response rating, Ragweed (common ragweed; [4]) | Plant response rating, Ragweed (common ragweed; [5]) | Plant response rating, Sowthistle (common sowthistle; [4])
50: Plant response rating, Dallisgrass (dallisgrass; [5])
10: Plant response rating, Dallisgrass (dallisgrass; [3]) | Plant response rating, Morningglory (pitted morningglory; [3]) | Plant response rating, Morningglory (pitted morningglory; [4]) | Plant response rating, Morningglory (pitted morningglory; [5]) | Plant response rating, Mallow (common mallow; [3]) | Plant response rating, Mallow (common mallow; [4])

CCc1nn(C(C)C)nc1C(=O)Nc1cccc(C(=O)N(C)CC)c1 [Compound 386]
80: Plant response rating, Bermudagrass (bermudagrass; [4]) | Plant response rating, Surinam Grass (Surinam grass; [4])
100: Plant response rating, Sowthistle (common sowthistle; [5])
50: Plant response rating, Groundsel (common groundsel; [5])
30: Plant response rating, Groundsel (common groundsel; [4])
40: Plant response rating, Morningglory (pitted morningglory; [5])
95: Plant response rating, Bermudagrass (bermudagrass; [5])
60: Plant response rating, Ragweed (common ragweed; [5]) | Plant response rating, Mallow (common mallow; [4]) | Plant response rating, Sowthistle (common sowthistle; [4])
20: Plant response rating, Ragweed (common ragweed; [4]) | Plant response rating, Morningglory (pitted morningglory; [4])
75: Plant response rating, Dallisgrass (dallisgrass; [5])
70: Plant response rating, Dallisgrass (dallisgrass; [4]) | Plant response rating, Mallow (common mallow; [5])
